According to patent publication US6737383B1, “Herbicidal oxadiazolidines” (priority 1999, dated 2004):

Legend:
sugar beet = assay: Test B pre/postemergence sugar beet; type: in vivo, Beta vulgaris
Summary of the method: (§1)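 Herbicidal effect was estimated by eye on a ten-point control scale after plants spent twelve to sixteen days in a greenhouse following soil or foliar treatment. Foliar sprays targeted plants at one to four leaves; all doses were formulated in a non-phytotoxic solvent with surfactant.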

rape = assay: Test B pre/postemergence rape; type: in vivo, Brassica napus
Summary of the method: as §1

corn = assay: Test B pre/postemergence corn; type: in vivo, Zea mays
Summary of the method: as §1

smallflower flatsedge = assay: Test B flood test smallflower flatsedge; type: in vivo, Cyperus difformis
Summary of the method: (§2)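 Plants were grown to the 2-leaf stage before treatment with test chemical, then held in a greenhouse for twelve to sixteen days. Injury was visually rated against untreated controls on a 0–10 scale, where 0 is no effect and 10 is complete control.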

blackgrass = assay: Test B pre/postemergence blackgrass; type: in vivo, Alopecurus myosuroides
Summary of the method: as §1

morningglory = assay: Test B pre/postemergence morningglory; type: in vivo, Ipomoea hederacea
Summary of the method: as §1

purple nutsedge = assay: Test B pre/postemergence purple nutsedge; type: in vivo, Cyperus rotundus
Summary of the method: as §1

rice = assay: Test B flood test rice; type: in vivo, Oryza sativa
Summary of the method: as §2

giant foxtail = assay: Test B pre/postemergence giant foxtail; type: in vivo, Setaria faberii
Summary of the method: as §1

bedstraw = assay: Test B pre/postemergence bedstraw; type: in vivo, Galium aparine; settings: Postemergence, Rate 500 g/ha; scale of 0 to 10 where 0 is no effect and 10 is complete control
Summary of the method: as §1

velvetleaf = assay: Test B pre/postemergence velvetleaf; type: in vivo, Abutilon theophrasti
Summary of the method: as §1

surinam grass = assay: Test B pre/postemergence surinam grass; type: in vivo, Brachiaria decumbens
Summary of the method: as §1

bamyardgrass = assay: Test B flood test barnyardgrass; type: in vivo, Echinochloa crus-galli
Summary of the method: as §2

soybean = assay: Test B pre/postemergence soybean; type: in vivo, Glycine max
Summary of the method: as §1

pigweed = assay: Test B pre/postemergence pigweed; type: in vivo, Amaranthus retroflexus
Summary of the method: as §1

duck salad = assay: Test B flood test duck salad; type: in vivo, Heteranthera limosa
Summary of the method: as §2

[1] = Postemergence, Rate 250 g/ha, scale 0 to 10, 0 is no effect, 10 is complete control
[2] = Postemergence, Rate 500 g/ha, scale of 0 to 10 where 0 is no effect and 10 is complete control
[3] = Preemergence, Rate 62 g/ha, scale 0 to 10 (0 no effect, 10 complete control)
[4] = Preemergence, Rate 125 g/ha, scale of 0 to 10 where 0 is no effect and 10 is complete control
[5] = Preemergence, Rate 250 g/ha, scale of 0 to 10 where 0 is no effect and 10 is complete control
[6] = Preemergence, Rate 500 g/ha, scale of 0 to 10 where 0 is no effect and 10 is complete control
[7] = Rate 62 g/ha, Postemergence, scale of 0 to 10 where 0 is no effect and 10 is complete control
[8] = Postemergence, Rate 125 g/ha, scale 0 to 10, 0 is no effect, 10 is complete control
[9] = Rate 62 g/ha, flood test species, Pre-emergence, visual evaluation after twelve to sixteen days
[10] = Rate 125 g/ha, under heading Pre-emergence, flood test species, visual evaluation after twelve to sixteen days
[11] = Rate 250 g/ha, Pre-emergence, flood-test species, scale 0 to 10, 0 is no effect, 10 is complete control
[12] = Rate 500 g/ha, Pre-emergence, flood test species, scale 0 to 10 (0 no effect, 10 complete control)

CC(C)N(C(=O)n1oc(=O)[nH]c1=O)c1ccc(F)cc1F [Compound 391]
0: Plant response rating, Sugarbeets (sugar beet; [1]) | Sugarbeets plant response rating (sugar beet; [2]) | Plant response rating, Sugarbeets (sugar beet; [3]) | Plant response rating, Sugarbeets (sugar beet; [4]) | Sugarbeets plant response rating (sugar beet; [5]) | Sugarbeets plant response rating (sugar beet; [6]) | Sugarbeets plant response rating (sugar beet; [7]) | Plant response rating, Rape (rape; [1]) | Rape plant response rating (rape; [2]) | Plant response rating, Rape (rape; [3]) | Plant response rating, Rape (rape; [4]) | Rape plant response rating (rape; [5]) | Rape plant response rating (rape; [6]) | Rape plant response rating (rape; [7]) | Plant response rating, Corn (corn; [8]) | Plant response rating, Corn (corn; [1]) | Corn plant response rating (corn; [2]) | Plant response rating, Corn (corn; [3]) | Plant response rating, Corn (corn; [4]) | Corn plant response rating (corn; [5]) | Corn plant response rating (corn; [6]) | Corn plant response rating (corn; [7]) | Plant response rating, S. Flatsedge (0 to 10 scale, 0 is no effect, 10 is complete control) (smallflower flatsedge; [9]) | S. Flatsedge plant response rating (0 to 10 scale, 0 is no effect, 10 is complete control) (smallflower flatsedge; [10]) | S. Flatsedge plant response rating (smallflower flatsedge; [11]) | S. Flatsedge plant response rating (smallflower flatsedge; [12]) | Plant response rating, Blackgrass (blackgrass; [1]) | Blackgrass plant response rating (blackgrass; [2]) | Plant response rating, Blackgrass (blackgrass; [3]) | Plant response rating, Blackgrass (blackgrass; [4]) | Blackgrass plant response rating (blackgrass; [5]) | Blackgrass plant response rating (blackgrass; [6]) | Plant response rating, Morningglory (morningglory; [1]) | Morningglory plant response rating (morningglory; [2]) | Plant response rating, Morningglory (morningglory; [3]) | Plant response rating, Morningglory (morningglory; [4]) | Morningglory plant response rating (morningglory; [5]) | Morningglory plant response rating (morningglory; [6]) | Morningglory plant response rating (morningglory; [7]) | Plant response rating, Nutsedge (purple nutsedge; [1]) | Nutsedge plant response rating (purple nutsedge; [2]) | Plant response rating, Nutsedge (purple nutsedge; [3]) | Plant response rating, Nutsedge (purple nutsedge; [4]) | Nutsedge plant response rating (purple nutsedge; [5]) | Nutsedge plant response rating (purple nutsedge; [6]) | Nutsedge plant response rating (purple nutsedge; [7]) | Plant response rating, Rice (0 to 10 scale, 0 is no effect, 10 is complete control) (rice; [9]) | Rice plant response rating (0 to 10 scale, 0 is no effect, 10 is complete control) (rice; [10]) | Rice plant response rating (rice; [11]) | Rice plant response rating (rice; [12]) | Plant response rating, Giant foxtail (giant foxtail; [8]) | Plant response rating, Giant foxtail (giant foxtail; [1]) | Giant foxtail plant response rating (giant foxtail; [2]) | Plant response rating, Giant foxtail (giant foxtail; [3]) | Plant response rating, Giant foxtail (giant foxtail; [4]) | Giant foxtail plant response rating (giant foxtail; [5]) | Giant foxtail plant response rating (giant foxtail; [6]) | Giant foxtail plant response rating (giant foxtail; [7]) | Bedstraw plant response rating (bedstraw) | Plant response rating, Velvetleaf (velvetleaf; [1]) | Velvetleaf plant response rating (velvetleaf; [2]) | Plant response rating, Velvetleaf (velvetleaf; [3]) | Plant response rating, Velvetleaf (velvetleaf; [4]) | Velvetleaf plant response rating (velvetleaf; [5]) | Velvetleaf plant response rating (velvetleaf; [6]) | Velvetleaf plant response rating (velvetleaf; [7]) | Plant response rating, B. signalgrass (surinam grass; [8]) | Plant response rating, B. signalgrass (surinam grass; [1]) | B. signalgrass plant response rating (surinam grass; [2]) | Plant response rating, B. signalgrass (surinam grass; [3]) | Plant response rating, B. signalgrass (surinam grass; [4]) | B. signalgrass plant response rating (surinam grass; [5]) | B. signalgrass plant response rating (surinam grass; [6]) | B. signalgrass plant response rating (surinam grass; [7]) | Plant response rating, Barnyardgrass (0 to 10 scale, 0 is no effect, 10 is complete control) (bamyardgrass; [9]) | Barnyardgrass plant response rating (0 to 10 scale, 0 is no effect, 10 is complete control) (bamyardgrass; [10]) | Barnyardgrass plant response rating (bamyardgrass; [11]) | Barnyardgrass plant response rating (bamyardgrass; [12]) | Plant response rating, Soybean (soybean; [1]) | Soybean plant response rating (soybean; [2]) | Plant response rating, Soybean (soybean; [3]) | Plant response rating, Soybean (soybean; [4]) | Soybean plant response rating (soybean; [5]) | Soybean plant response rating (soybean; [6]) | Soybean plant response rating (soybean; [7]) | Plant response rating, Redroot pigweed (pigweed; [1]) | Redroot pigweed plant response rating (pigweed; [2]) | Plant response rating, Redroot pigweed (pigweed; [3]) | Plant response rating, Redroot pigweed (pigweed; [4]) | Redroot pigweed plant response rating (pigweed; [5]) | Redroot pigweed plant response rating (pigweed; [6]) | Redroot pigweed plant response rating (pigweed; [7]) | Plant response rating, Ducksalad (0 to 10 scale, 0 is no effect, 10 is complete control) (duck salad; [9]) | Ducksalad plant response rating (0 to 10 scale, 0 is no effect, 10 is complete control) (duck salad; [10]) | Ducksalad plant response rating (duck salad; [11]) | Ducksalad plant response rating (duck salad; [12])
